{
  "source": "PubChem BioAssay AID1745844",
  "about": "(Carcinogenic Potency Database (CPDB), 2022)",
  "test_system": "rodent lifetime carcinogenesis bioassay, tumor incidence TD50",
  "test": "carcinogenic potency in animals, long-term in vivo studies, CPDB compilation (AID 1745844)",
  "conditions": "rat",
  "note": "“And” between values parts separate entries of the source, which are not always exact repeats. Equal entries are not always repeated. The source made the active and inactive calls. How the calls were made is not given here.",
  "data": [
    {"smiles": "ClCCl", "values": [
      {"measurement": "carcinogen call", "setting": "strain Fischer 344, females, in drinking water, site: liver, lesion: hepatocellular carcinoma, dosed 78 weeks, study length 104 weeks", "result": "negative (inactive)"},
      {"measurement": "TD50", "setting": "strain Fischer 344, females, in drinking water, site: liver, lesion: hepatocellular carcinoma, dosed 104 weeks, study length 104 weeks", "result": "3630 mg/kg/day (inactive)"},
      {"measurement": "carcinogen call", "setting": "strain Fischer 344, females, in drinking water, site: liver, lesion: neoplastic nodule, dosed 78 weeks, study length 78 weeks", "result": "negative (inactive)"},
      {"measurement": "TD50", "setting": "strain Fischer 344, females, in drinking water, site: liver, lesion: neoplastic nodule, dosed 78 weeks, study length 104 weeks", "result": "1540 mg/kg/day (inactive)"},
      {"measurement": "TD50", "setting": "strain Fischer 344, females, in drinking water, site: liver, lesion: neoplastic nodule, dosed 104 weeks, study length 104 weeks", "result": "2340 mg/kg/day (inactive)"},
      {"measurement": "TD50", "setting": "strain Fischer 344, females, in drinking water, site: liver, lesion: several types, types named in the paper, dosed 78 weeks, study length 104 weeks", "result": "1540 mg/kg/day (inactive)"},
      {"measurement": "TD50", "setting": "strain Fischer 344, females, in drinking water, site: liver, lesion: several types, types named in the paper, dosed 104 weeks, study length 104 weeks", "result": "1430 mg/kg/day (inactive)"},
      {"measurement": "TD50", "setting": "strain Fischer 344, females, inhaled, site: all sites, lesion: mononuclear-cell leukemia, dosed 102 weeks, study length 104 weeks", "result": 1280, "unit": "mg/kg/day"},
      {"measurement": "TD50", "setting": "strain Fischer 344, females, inhaled, site: any site (literature study), lesion: several types, types named in the paper, dosed 102 weeks, study length 104 weeks", "result": 501, "unit": "mg/kg/day"},
      {"measurement": "TD50", "setting": "strain Fischer 344, females, inhaled, site: liver, lesion: hepatocellular adenoma + hepatocellular carcinoma + neoplastic nodule, dosed 102 weeks, study length 104 weeks", "result": 4270, "unit": "mg/kg/day"},
      {"measurement": "TD50", "setting": "strain Fischer 344, females, inhaled, site: liver, lesion: hepatocellular carcinoma + neoplastic nodule, dosed 102 weeks, study length 104 weeks", "result": 4270, "unit": "mg/kg/day"},
      {"measurement": "TD50", "setting": "strain Fischer 344, females, inhaled, site: mammary gland, lesion: adenocarcinoma, NOS + adenoma, NOS + fibroadenoma + mixed tumor, malignant, dosed 102 weeks, study length 104 weeks", "result": 670, "unit": "mg/kg/day"},
      {"measurement": "TD50", "setting": "strain Fischer 344, females, inhaled, site: mammary gland, lesion: adenocarcinoma, NOS + adenoma, NOS + fibroadenoma, dosed 102 weeks, study length 104 weeks", "result": 630, "unit": "mg/kg/day"},
      {"measurement": "TD50", "setting": "strain Fischer 344, females, inhaled, site: mammary gland, lesion: adenoma, NOS + fibroadenoma, dosed 102 weeks, study length 104 weeks", "result": 598, "unit": "mg/kg/day"},
      {"measurement": "TD50", "setting": "strain Fischer 344, females, inhaled, site: mammary gland, lesion: fibroadenoma, dosed 102 weeks, study length 104 weeks", "result": 632, "unit": "mg/kg/day"},
      {"measurement": "carcinogen call", "setting": "strain Fischer 344, males, in drinking water, site: liver, lesion: hepatocellular carcinoma, dosed 78 weeks, study length 104 weeks", "result": "negative (inactive)"},
      {"measurement": "carcinogen call", "setting": "strain Fischer 344, males, in drinking water, site: liver, lesion: hepatocellular carcinoma, dosed 104 weeks, study length 104 weeks", "result": "negative (inactive)"},
      {"measurement": "carcinogen call", "setting": "strain Fischer 344, males, in drinking water, site: liver, lesion: neoplastic nodule, dosed 78 weeks, study length 78 weeks", "result": "negative (inactive)"},
      {"measurement": "TD50", "setting": "strain Fischer 344, males, in drinking water, site: liver, lesion: neoplastic nodule, dosed 78 weeks, study length 104 weeks", "result": "1610 mg/kg/day (inactive)"},
      {"measurement": "carcinogen call", "setting": "strain Fischer 344, males, in drinking water, site: liver, lesion: neoplastic nodule, dosed 104 weeks, study length 104 weeks", "result": "negative (inactive)"},
      {"measurement": "TD50", "setting": "strain Fischer 344, males, in drinking water, site: liver, lesion: several types, types named in the paper, dosed 78 weeks, study length 104 weeks", "result": "3660 mg/kg/day (inactive)"},
      {"measurement": "carcinogen call", "setting": "strain Fischer 344, males, in drinking water, site: liver, lesion: several types, types named in the paper, dosed 104 weeks, study length 104 weeks", "result": "negative (inactive)"},
      {"measurement": "TD50", "setting": "strain Fischer 344, males, inhaled, site: any site (literature study), lesion: several types, types named in the paper, dosed 102 weeks, study length 104 weeks", "result": 539, "unit": "mg/kg/day"},
      {"measurement": "TD50", "setting": "strain Fischer 344, males, inhaled, site: mammary gland + subcutaneous tissue, lesion: adenoma, NOS + fibroadenoma + fibroma, dosed 102 weeks, study length 104 weeks", "result": 917, "unit": "mg/kg/day"},
      {"measurement": "TD50", "setting": "strain Fischer 344, males, inhaled, site: mammary gland, lesion: adenoma, NOS + fibroadenoma, dosed 102 weeks, study length 104 weeks", "result": 1640, "unit": "mg/kg/day"},
      {"measurement": "TD50", "setting": "strain Fischer 344, males, inhaled, site: mammary gland, lesion: fibroadenoma, dosed 102 weeks, study length 104 weeks", "result": 1770, "unit": "mg/kg/day"},
      {"measurement": "TD50", "setting": "strain Fischer 344, males, inhaled, site: multiple organs + tunica vaginalis, lesion: mesothelioma, NOS + mesothelioma, malignant, dosed 102 weeks, study length 104 weeks", "result": 1440, "unit": "mg/kg/day"},
      {"measurement": "TD50", "setting": "strain Fischer 344, males, inhaled, site: subcutaneous tissue, lesion: fibroma + sarcoma, NOS, dosed 102 weeks, study length 104 weeks", "result": 1990, "unit": "mg/kg/day"},
      {"measurement": "TD50", "setting": "strain Fischer 344, males, inhaled, site: subcutaneous tissue, lesion: fibroma, dosed 102 weeks, study length 104 weeks", "result": 2180, "unit": "mg/kg/day"},
      {"measurement": "TD50", "setting": "strain Fischer 344, males, inhaled, site: tunica vaginalis, lesion: mesothelioma, NOS + mesothelioma, malignant, dosed 102 weeks, study length 104 weeks", "result": 1640, "unit": "mg/kg/day"},
      {"measurement": "TD50", "setting": "strain Fischer 344, males, inhaled, site: tunica vaginalis, lesion: mesothelioma, malignant, dosed 102 weeks, study length 104 weeks", "result": 4310, "unit": "mg/kg/day"},
      {"measurement": "TD50", "setting": "strain Sprague-Dawley Spartan, females, inhaled, site: liver, lesion: Kupffer-cell sarcoma, dosed 104 weeks, study length 104 weeks", "result": "9340 mg/kg/day (inactive)"},
      {"measurement": "carcinogen call", "setting": "strain Sprague-Dawley Spartan, females, inhaled, site: liver, lesion: hepatocellular carcinoma, dosed 52 weeks, study length 104 weeks", "result": "negative (inactive)"},
      {"measurement": "TD50", "setting": "strain Sprague-Dawley Spartan, females, inhaled, site: liver, lesion: hepatocellular carcinoma, dosed 104 weeks, study length 104 weeks", "result": "9520 mg/kg/day (inactive)"},
      {"measurement": "carcinogen call", "setting": "strain Sprague-Dawley Spartan, females, inhaled, site: liver, lesion: neoplastic nodule, dosed 52 weeks, study length 104 weeks", "result": "negative (inactive)"},
      {"measurement": "carcinogen call", "setting": "strain Sprague-Dawley Spartan, females, inhaled, site: liver, lesion: neoplastic nodule, dosed 104 weeks, study length 104 weeks", "result": "negative (inactive)"},
      {"measurement": "TD50", "setting": "strain Sprague-Dawley Spartan, females, inhaled, site: mammary gland, lesion: adenocarcinoma, dosed 52 weeks, study length 104 weeks", "result": "1140 mg/kg/day (inactive)"},
      {"measurement": "carcinogen call", "setting": "strain Sprague-Dawley Spartan, females, inhaled, site: mammary gland, lesion: adenocarcinoma, dosed 104 weeks, study length 104 weeks", "result": "negative (inactive)"},
      {"measurement": "TD50", "setting": "strain Sprague-Dawley Spartan, females, inhaled, site: mammary gland, lesion: benign tumor, dosed 52 weeks, study length 104 weeks", "result": 38.1, "unit": "mg/kg/day"},
      {"measurement": "TD50", "setting": "strain Sprague-Dawley Spartan, females, inhaled, site: mammary gland, lesion: benign tumor, dosed 104 weeks, study length 104 weeks", "result": "4430 mg/kg/day and 1550 mg/kg/day"},
      {"measurement": "TD50", "setting": "strain Sprague-Dawley Spartan, females, inhaled, site: mammary gland, lesion: fibroadenoma, dosed 52 weeks, study length 104 weeks", "result": 37.7, "unit": "mg/kg/day"},
      {"measurement": "TD50", "setting": "strain Sprague-Dawley Spartan, females, inhaled, site: mammary gland, lesion: fibroadenoma, dosed 104 weeks, study length 104 weeks", "result": 631, "unit": "mg/kg/day"},
      {"measurement": "carcinogen call", "setting": "strain Sprague-Dawley Spartan, males, inhaled, site: liver, lesion: one or several types, types not named, dosed 86 weeks, study length 86 weeks", "result": "negative (inactive)"},
      {"measurement": "TD50", "setting": "strain Sprague-Dawley Spartan, males, inhaled, site: mammary gland, lesion: benign tumor, dosed 104 weeks, study length 104 weeks", "result": 5080, "unit": "mg/kg/day"},
      {"measurement": "TD50", "setting": "strain Sprague-Dawley Spartan, males, inhaled, site: salivary gland, lesion: several types, types named in the paper, dosed 104 weeks, study length 104 weeks", "result": 4260, "unit": "mg/kg/day"},
      {"measurement": "TD50", "setting": "strain Sprague-Dawley, females, by gavage, site: any site (literature study), lesion: malignant tumor, dosed 64 weeks, study length 104 weeks", "result": 1740, "unit": "mg/kg/day"},
      {"measurement": "TD50", "setting": "strain Sprague-Dawley, females, by gavage, site: mammary tissue, wider than the gland, lesion: malignant tumor, dosed 64 weeks, study length 104 weeks", "result": 1130, "unit": "mg/kg/day"},
      {"measurement": "TD50", "setting": "strain Sprague-Dawley, females, by gavage, site: mammary tissue, wider than the gland, lesion: several types, types named in the paper, dosed 64 weeks, study length 104 weeks", "result": 1030, "unit": "mg/kg/day"},
      {"measurement": "TD50", "setting": "strain Sprague-Dawley, females, inhaled, site: any site (literature study), lesion: malignant tumor, dosed 104 weeks, study length 104 weeks", "result": 477, "unit": "mg/kg/day"},
      {"measurement": "TD50", "setting": "strain Sprague-Dawley, females, inhaled, site: any site (literature study), lesion: several types, types named in the paper, dosed 104 weeks, study length 104 weeks", "result": 32.1, "unit": "mg/kg/day"},
      {"measurement": "TD50", "setting": "strain Sprague-Dawley, females, inhaled, site: mammary tissue, wider than the gland, lesion: several types, types named in the paper, dosed 104 weeks, study length 104 weeks", "result": 37.8, "unit": "mg/kg/day"},
      {"measurement": "TD50", "setting": "strain Sprague-Dawley, males, by gavage, site: any site (literature study), lesion: malignant tumor, dosed 64 weeks, study length 104 weeks", "result": 935, "unit": "mg/kg/day"}
    ]}
  ]
}
